This experiment addresses γ-secretase (Homo sapiens (Human), UniProt P49768). Nature of the experiment: Cellular γ-secretase assay (Aβ42 secretion, AlphaLisa). In kind it is cell-based. To be noted: inhibition of Aβ42 secretion; human neuroglioma H4 cells overexpressing human APP695 Swedish double mutation; 24 hr compound incubation. The procedure: Human neuroglioma H4 cells overexpressing human APP695 with the Swedish double mutation (K595N/M596L) were plated at 30,000 cells/well/100 μl in 96-well plates in IMDM media containing 10% FCS, 0.2 mg/l Hygromycin B and incubated at 37° C., 5% CO2.
3-4 hr post plating, compounds are a diluted in media and 50 μl is added as […] concentrate to achieve the final concentration. Compound incubation is performed for 24 hr. Final doses typically range from 4 μM down to 0.0013 μM in half-log steps resulting in an eight point dose response curve. Appropriate controls using vehicle only and reference compound were applied to this assay. The final concentration of Me2SO was 0.4%.
After incubation at 37° C., 5% CO2, the supernatant was subjected to quantification of secreted Aβ42 by the means of an AlphaLisa assay kit (Human Amyloid beta 1-42 Kit: Cat # AL203C, Perkin Elmer). 20 μl of the cell culture supernatant was transferred to an assay plate. Then 10 μl of a mixture of the AlphaLisa coupled capture antibody and the biotinylated detection antibody was added and incubated for 3 hours at room temperature while softly shaking the assay plate. After a further addition of 20 μl of the Donor beads the assay plate was incubated for 30 min at room temperature and constant shaking without exposure to direct light. The assay plate was then read on a Paradigm AlphaLisa Reader using the build-in program with excitation at 680 nm and emission at […]. The measured signals were then used to calculate IC50 values for inhibition of Aβ42 secretion by nonlinear regression fit analysis using XLfit 5.3 software (IDBS).
In general terms: Bead proximity is the source of the signal in Alpha formats.

Each structure is given as a SMILES string.

With `CNc1nc(Nc2ccc(-n3cnc(C)n3)c(F)c2)nc2c1C(C)(C)CN2c1ccc(F)c(F)c1` [Example 9, 7-(3,4-Difluorophenyl)-N2-(3-fluoro-4-(3-methyl-1H-1,2,4-triazol-1-yl)phenyl)-N4,5,5-trimethyl-6,7-dihydro-5H-pyrrolo[2,3-d]pyrimidine-2,4-diamine], the EC50 came out at 26 nM. Turning to `CNc1nc(Nc2ccc(-n3cnc(C)n3)cc2)nc2c1C(C)(C)CN2c1ccc(F)cc1` [Example 10, 7-(4-Fluorophenyl)-N4,5,5-trimethyl-N2-(4-(3-methyl-1H-1,2,4-triazol-1-yl)phenyl)-6,7-dihydro-5H-pyrrolo[2,3-d]pyrimidine-2,4-diamine], the midpoint of the response, the EC50, lay at 51 nM. With `CNc1nc(Nc2ccc(-n3cc(C)nc3C)c(F)c2)nc2c1C(C)(C)CN2c1ccc(F)cc1` [Example 11, N2-(4-(2,4-Dimethyl-1H-imidazol-1-yl)-3-fluorophenyl)-7-(4-fluorophenyl)-N4,5,5-trimethyl-6,7-dihydro-5H-pyrrolo[2,3-d]pyrimidine-2,4-diamine] the figure was 33 nM. In the case of `CNc1nc(Nc2ccc(-n3cnc(C)c3)cc2)nc2c1C(C)(C)CN2c1ccc(F)cc1` [Example 12, 7-(4-Fluorophenyl)-N4,5,5-trimethyl-N2-(4-(4-methyl-1H-imidazol-1-yl)phenyl)-6,7-dihydro-5H-pyrrolo[2,3-d]pyrimidine-2,4-diamine] it was 13 nM. With `CNc1nc(Nc2ccc(-n3cnc(C)n3)nc2)nc2c1C(C)(C)CN2c1ccc(F)cc1` [Example 13, 7-(4-Fluorophenyl)-N4,5,5-trimethyl-N2-(6-(3-methyl-1H-1,2,4-triazol-1-yl)pyridin-3-yl)-6,7-dihydro-5H-pyrrolo[2,3-d]pyrimidine-2,4-diamine] the figure was 23 nM. For `CNc1nc(Nc2cnc(-n3cnc(Cl)c3)c(OC)c2)nc2c1C(C)(C)CN2c1ccc(F)c(F)c1` [Example 14, N2-(6-(4-Chloro-1H-imidazol-1-yl)-5-methoxypyridin-3-yl)-7-(3,4-difluorophenyl)-N4,5,5-trimethyl-6,7-dihydro-5H-pyrrolo[2,3-d]pyrimidine-2,4-diamine], it took 10 nM to reach a half-maximal effect (EC50).

For the compound `CNc1nc(Nc2cnc(-n3cnc(C)c3)c(OC)c2)nc2c1C(C)(C)CN2c1ccc(F)c(F)c1` [Example 15, 7-(3,4-Difluorophenyl)-N2-(5-methoxy-6-(4-methyl-1H-imidazol-1-yl)pyridin-3-yl)-N4,5,5-trimethyl-6,7-dihydro-5H-pyrrolo[2,3-d]pyrimidine-2,4-diamine], a half-maximal effect (EC50) was put at 8 nM. The compound `CNc1nc(Nc2ccc(-c3cnc(C)o3)c(F)c2)nc2c1C(C)(C)CN2c1ccc(F)cc1` [Example 16, N2-(3-Fluoro-4-(2-methyloxazol-5-yl)phenyl)-7-(4-fluorophenyl)-N4,5,5-trimethyl-6,7-dihydro-5H-pyrrolo[2,3-d]pyrimidine-2,4-diamine] displayed an EC50 of 30 nM. In the case of `CNc1nc(Nc2ccc(-n3cnc(C)n3)c(OC)c2)nc2c1C(C)(C)CN2C1CC(F)(F)C1` [Example 17, 7-(3,3-Difluorocyclobutyl)-N2-(3-methoxy-4-(3-methyl-1H-1,2,4-triazol-1-yl)phenyl)-N4,5,5-trimethyl-6,7-dihydro-5H-pyrrolo[2,3-d]pyrimidine-2,4-diamine] it was 19 nM; in that of `CNc1nc(Nc2cnc(-n3cnc(C)c3)c(OC)c2)nc2c1C(C)(C)CN2C1CC(F)(F)C1` [Example 18, 7-(3,3-Difluorocyclobutyl)-N2-(5-methoxy-6-(4-methyl-1H-imidazol-1-yl)pyridin-3-yl)-N4,5,5-trimethyl-6,7-dihydro-5H-pyrrolo[2,3-d]pyrimidine-2,4-diamine], 14 nM.

In turn, `CNc1nc(Nc2ccc(-n3cnc(C)n3)c(OC)c2)nc2c1C(C)(C)CN2c1ccc(F)cc1F` [Example 19, 7-(2,4-Difluorophenyl)-N2-(3-methoxy-4-(3-methyl-1H-1,2,4-triazol-1-yl)phenyl)-N4,5,5-trimethyl-6,7-dihydro-5H-pyrrolo[2,3-d]pyrimidine-2,4-diamine] registered an EC50 of 8 nM.

Compound `CNc1nc(Nc2cnc(-n3cnc(C)c3)c(OC)c2)nc2c1C(C)(C)CN2c1ccc(F)cc1F` [Example 20, 7-(2,4-Difluorophenyl)-N2-(5-methoxy-6-(4-methyl-1H-imidazol-1-yl)pyridin-3-yl)-N4,5,5-trimethyl-6,7-dihydro-5H-pyrrolo[2,3-d]pyrimidine-2,4-diamine] came in with an EC50 of 8 nM. With `CNc1nc(Nc2ccc(-n3cnc(C)n3)c(OC)c2)nc2c1C(C)(C)CN2C12CC(C(F)(F)F)(C1)C2` [Example 21, N2-(3-Methoxy-4-(3-methyl-1H-1,2,4-triazol-1-yl)phenyl)-N4,5,5-trimethyl-7-(3-(trifluoromethyl)bicyclo[1.1.1]pentan-1-yl)-6,7-dihydro-5H-pyrrolo[2,3-d]pyrimidine-2,4-diamine] the figure was 72 nM; with `CNc1nc(Nc2cnc(-n3cnc(C)c3)c(OC)c2)nc2c1C(C)(C)CN2C12CC(C(F)(F)F)(C1)C2` [Example 22, N2-(5-Methoxy-6-(4-methyl-1H-imidazol-1-yl)pyridin-3-yl)-N4,5,5-trimethyl-7-(3-(trifluoromethyl)bicyclo[1.1.1]pentan-1-yl)-6,7-dihydro-5H-pyrrolo[2,3-d]pyrimidine-2,4-diamine], 30 nM. With `CNc1nc(Nc2cnc(-n3cnc(Cl)c3)c(OC)c2)nc2c1C(C)(C)CN2c1ccc(F)cc1F` [Example 23, N2-(6-(4-Chloro-1H-imidazol-1-yl)-5-methoxypyridin-3-yl)-7-(2,4-difluorophenyl)-N4,5,5-trimethyl-6,7-dihydro-5H-pyrrolo[2,3-d]pyrimidine-2,4-diamine] the figure was 8 nM; with `CNc1nc(Nc2ccc(-n3cnc(C)n3)c(F)c2)nc2c1C(C)(C)CN2c1ccc(F)cc1F` [Example 24, 7-(2,4-Difluorophenyl)-N2-(3-fluoro-4-(3-methyl-1H-1,2,4-triazol-1-yl)phenyl)-N4,5,5-trimethyl-6,7-dihydro-5H-pyrrolo[2,3-d]pyrimidine-2,4-diamine], 22 nM; with `CNc1nc(Nc2cnc(-n3cnc(C)c3)c(F)c2)nc2c1C(C)(C)CN2c1ccc(F)cc1` [Example 25, N2-(5-Fluoro-6-(4-methyl-1H-imidazol-1-yl)pyridin-3-yl)-7-(4-fluorophenyl)-N4,5,5-trimethyl-6,7-dihydro-5H-pyrrolo[2,3-d]pyrimidine-2,4-diamine], 8 nM.

`CNc1nc(Nc2cnc(-n3cnc(C)c3)c(F)c2)nc2c1C(C)(C)CN2c1ccc(F)cc1F` [Example 26, 7-(2,4-Difluorophenyl)-N2-(5-fluoro-6-(4-methyl-1H-imidazol-1-yl)pyridin-3-yl)-N4,5,5-trimethyl-6,7-dihydro-5H-pyrrolo[2,3-d]pyrimidine-2,4-diamine]: the EC50 is 6 nM. `CNc1nc(Nc2ccc(-c3nnc(C)o3)c(OC)c2)nc2c1C(C)(C)CN2c1ccc(F)cc1` [Example 27, 7-(4-Fluorophenyl)-N2-(3-methoxy-4-(5-methyl-1,3,4-oxadiazol-2-yl)phenyl)-N4,5,5-trimethyl-6,7-dihydro-5H-pyrrolo[2,3-d]pyrimidine-2,4-diamine] registered an EC50 of 30 nM. As for `COc1cc(Nc2nc(NCCO)c3c(n2)N(c2ccc(F)cc2)CC3(C)C)ccc1-n1cnc(C)n1` [Example 28, 2-((7-(4-Fluorophenyl)-2-((3-methoxy-4-(3-methyl-1H-1,2,4-triazol-1-yl)phenyl)amino)-5,5-dimethyl-6,7-dihydro-5H-pyrrolo[2,3-d]pyrimidin-4-yl)amino)ethanol], the response was half-maximal at 8 nM (EC50). This EC50 lies about 3.8-fold lower than the previous one. In the case of `COc1cc(Nc2nc(NCCO)c3c(n2)N(c2ccc(F)cc2)CC3(C)C)cnc1-n1cnc(C)c1` [Example 29, 2-((7-(4-Fluorophenyl)-2-((5-methoxy-6-(4-methyl-1H-imidazol-1-yl)pyridin-3-yl)amino)-5,5-dimethyl-6,7-dihydro-5H-pyrrolo[2,3-d]pyrimidin-4-yl)amino)ethanol] it was 6 nM.

`COc1cc(Nc2nc(NCCO)c3c(n2)N(c2ccc(F)cc2)CC3(C)C)cnc1-n1cnc(Cl)c1` [Example 30, 2-((2-((6-(4-Chloro-1H-imidazol-1-yl)-5-methoxypyridin-3-yl)amino)-7-(4-fluorophenyl)-5,5-dimethyl-6,7-dihydro-5H-pyrrolo[2,3-d]pyrimidin-4-yl)amino)ethanol]: the response was half-maximal at 11 nM (EC50). With `Cc1ncn(-c2ccc(Nc3nc(NCCO)c4c(n3)N(c3ccc(F)cc3)CC4(C)C)cc2F)n1` [Example 31, 2-((2-((3-Fluoro-4-(3-methyl-1H-1,2,4-triazol-1-yl)phenyl)amino)-7-(4-fluorophenyl)-5,5-dimethyl-6,7-dihydro-5H-pyrrolo[2,3-d]pyrimidin-4-yl)amino)ethanol], the 50% effective concentration (EC50) came out at 15 nM. `CNc1nc(Nc2ccc(-n3cnc(C)n3)c(OC)c2)nc2c1CCN2c1ccc(F)cc1` [Example 32, 7-(4-Fluorophenyl)-N2-(3-methoxy-4-(3-methyl-1H-1,2,4-triazol-1-yl)phenyl)-N4-methyl-6,7-dihydro-5H-pyrrolo[2,3-d]pyrimidine-2,4-diamine] showed an EC50 of 10 nM.

Broadly, the EC50 is the concentration that produces a half-maximal response. Low values mean a more potent agent, high ones a less potent agent.

The record behind these values is US10669276B2, “Fused pyrimidine derivatives” (Hoffmann-La Roche Inc., priority 2016, dated 2020).
